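Dose response: 5 concentrations. Exposure: 48 h. Format: 96-well plates. Endpoint: linear interpolation; highest concentration if not reached. TGI marks complete inhibition of growth.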
What was measured:
Assay in all cases: NCI-60 cell line screen, 48 h
NCI-H23 lung = system: NCI-H23 lung
MOLT-4 leukemia = system: MOLT-4 leukemia
PC-3 prostate = system: PC-3 prostate
SN12C renal = system: SN12C renal
OVCAR-3 ovarian = system: OVCAR-3 ovarian
ACHN renal = system: ACHN renal
HCT-116 colon = system: HCT-116 colon
OVCAR-4 ovarian = system: OVCAR-4 ovarian
DU-145 prostate = system: DU-145 prostate
IGROV1 ovarian = system: IGROV1 ovarian
MCF7 breast = system: MCF7 breast
HOP-92 NSCLC = system: HOP-92 NSCLC
CAKI-1 renal = system: CAKI-1 renal
EKVX NSCLC = system: EKVX NSCLC
M14 melanoma = system: M14 melanoma
UACC-257 melanoma = system: UACC-257 melanoma
NCI-H226 lung = system: NCI-H226 lung
HS 578T breast = system: HS 578T breast
SF-539 CNS = system: SF-539 CNS
SK-MEL-2 melanoma = system: SK-MEL-2 melanoma
SNB-75 CNS = system: SNB-75 CNS
BT-549 breast = system: BT-549 breast
COLO 205 colon = system: COLO 205 colon
786-0 renal = system: 786-0 renal
MDA-MB-435 = system: MDA-MB-435
MALME-3M melanoma = system: MALME-3M melanoma
SK-MEL-28 melanoma = system: SK-MEL-28 melanoma
MDA-N = system: MDA-N
MDA-MB-231 breast = system: MDA-MB-231 breast
UACC-62 melanoma = system: UACC-62 melanoma
SK-OV-3 ovarian = system: SK-OV-3 ovarian
SF-295 CNS = system: SF-295 CNS
SK-MEL-5 melanoma = system: SK-MEL-5 melanoma
SF-268 CNS = system: SF-268 CNS
OVCAR-5 ovarian = system: OVCAR-5 ovarian
RPMI-8226 leukemia = system: RPMI-8226 leukemia
A549 NSCLC = system: A549 NSCLC
SNB-19 CNS = system: SNB-19 CNS
UO-31 renal = system: UO-31 renal
LOX IMVI melanoma = system: LOX IMVI melanoma
KM12 colon = system: KM12 colon
HT29 colon = system: HT29 colon
CCRF-CEM leukemia = system: CCRF-CEM leukemia
SW-620 colon = system: SW-620 colon
HL-60(TB) leukemia = system: HL-60(TB) leukemia
NCI-H522 lung = system: NCI-H522 lung
T-47D breast = system: T-47D breast
HOP-62 NSCLC = system: HOP-62 NSCLC
NCI-H460 lung = system: NCI-H460 lung
HCT-15 colon = system: HCT-15 colon
TK-10 renal = system: TK-10 renal
OVCAR-8 ovarian = system: OVCAR-8 ovarian
HCC-2998 colon = system: HCC-2998 colon
NCI/ADR-RES ovarian = system: NCI/ADR-RES ovarian
U251 CNS = system: U251 CNS
K-562 leukemia = system: K-562 leukemia
RXF 393 renal = system: RXF 393 renal
SR leukemia = system: SR leukemia
A498 renal = system: A498 renal

Compound: N#Cc1c(-c2ccccc2)[nH]c2ccc(Cl)cc2c1=O
- TGI (NCI-H23 lung): > 100 µM
- TGI (MOLT-4 leukemia): > 100 µM
- TGI (PC-3 prostate): > 100 µM
- TGI (SN12C renal): > 100 µM
- TGI (OVCAR-3 ovarian): > 100 µM
- TGI (ACHN renal): > 100 µM
- TGI (HCT-116 colon): > 100 µM
- TGI (OVCAR-4 ovarian): > 100 µM
- TGI (DU-145 prostate): > 100 µM
- TGI (IGROV1 ovarian): > 100 µM
- TGI (MCF7 breast): > 100 µM
- TGI (HOP-92 NSCLC): 51.1 µM
- TGI (CAKI-1 renal): > 100 µM
- TGI (EKVX NSCLC): > 100 µM
- TGI (M14 melanoma): > 100 µM
- TGI (UACC-257 melanoma): > 100 µM
- TGI (NCI-H226 lung): > 100 µM
- TGI (HS 578T breast): > 100 µM
- TGI (SF-539 CNS): > 100 µM
- TGI (SK-MEL-2 melanoma): 94.3 µM
- TGI (SNB-75 CNS): > 100 µM
- TGI (BT-549 breast): 80.9 µM
- TGI (COLO 205 colon): > 100 µM
- TGI (786-0 renal): > 100 µM
- TGI (MDA-MB-435): > 100 µM
- TGI (MALME-3M melanoma): > 100 µM
- TGI (SK-MEL-28 melanoma): > 100 µM
- TGI (MDA-N): > 100 µM
- TGI (MDA-MB-231 breast): 89.7 µM
- TGI (UACC-62 melanoma): > 100 µM
- TGI (SK-OV-3 ovarian): > 100 µM
- TGI (SF-295 CNS): 66.2 µM
- TGI (SK-MEL-5 melanoma): > 100 µM
- TGI (SF-268 CNS): > 100 µM
- TGI (OVCAR-5 ovarian): > 100 µM
- TGI (RPMI-8226 leukemia): > 100 µM
- TGI (A549 NSCLC): > 100 µM
- TGI (SNB-19 CNS): 59.9 µM
- TGI (UO-31 renal): 44 µM
- TGI (LOX IMVI melanoma): > 100 µM
- TGI (KM12 colon): > 100 µM
- TGI (HT29 colon): > 100 µM
- TGI (CCRF-CEM leukemia): > 100 µM
- TGI (SW-620 colon): > 100 µM
- TGI (HL-60(TB) leukemia): > 100 µM
- TGI (NCI-H522 lung): > 100 µM
- TGI (T-47D breast): > 100 µM
- TGI (HOP-62 NSCLC): 74 µM
- TGI (NCI-H460 lung): > 100 µM
- TGI (HCT-15 colon): > 100 µM
- TGI (TK-10 renal): 90.6 µM
- TGI (OVCAR-8 ovarian): > 100 µM
- TGI (HCC-2998 colon): > 100 µM
- TGI (NCI/ADR-RES ovarian): > 100 µM
- TGI (U251 CNS): 75.9 µM
- TGI (K-562 leukemia): > 100 µM
- TGI (RXF 393 renal): 49 µM
- TGI (SR leukemia): > 100 µM

Compound: O=C1c2ccccc2C(=O)N1CCCCNOCCCN1C(=O)c2ccccc2C1=O
- TGI (NCI-H23 lung): > 100 µM
- TGI (MOLT-4 leukemia): > 100 µM
- TGI (PC-3 prostate): > 100 µM
- TGI (SN12C renal): > 100 µM
- TGI (OVCAR-3 ovarian): > 100 µM
- TGI (ACHN renal): > 100 µM
- TGI (HCT-116 colon): > 100 µM
- TGI (OVCAR-4 ovarian): > 100 µM
- TGI (DU-145 prostate): > 100 µM
- TGI (IGROV1 ovarian): > 100 µM
- TGI (MCF7 breast): > 100 µM
- TGI (HOP-92 NSCLC): > 100 µM
- TGI (CAKI-1 renal): > 100 µM
- TGI (EKVX NSCLC): > 100 µM
- TGI (M14 melanoma): > 100 µM
- TGI (UACC-257 melanoma): > 100 µM
- TGI (NCI-H226 lung): > 100 µM
- TGI (HS 578T breast): > 100 µM
- TGI (SNB-75 CNS): > 100 µM
- TGI (BT-549 breast): > 100 µM
- TGI (COLO 205 colon): > 100 µM
- TGI (786-0 renal): > 100 µM
- TGI (MDA-MB-435): > 100 µM
- TGI (MALME-3M melanoma): > 100 µM
- TGI (SK-MEL-28 melanoma): > 100 µM
- TGI (MDA-N): > 100 µM
- TGI (MDA-MB-231 breast): > 100 µM
- TGI (UACC-62 melanoma): > 100 µM
- TGI (SK-OV-3 ovarian): > 100 µM
- TGI (SF-295 CNS): > 100 µM
- TGI (SK-MEL-5 melanoma): > 100 µM
- TGI (SF-268 CNS): > 100 µM
- TGI (OVCAR-5 ovarian): > 100 µM
- TGI (RPMI-8226 leukemia): > 100 µM
- TGI (A549 NSCLC): > 100 µM
- TGI (SNB-19 CNS): > 100 µM
- TGI (UO-31 renal): > 100 µM
- TGI (LOX IMVI melanoma): > 100 µM
- TGI (KM12 colon): > 100 µM
- TGI (HT29 colon): > 100 µM
- TGI (CCRF-CEM leukemia): > 100 µM
- TGI (SW-620 colon): > 100 µM
- TGI (NCI-H522 lung): > 100 µM
- TGI (T-47D breast): > 100 µM
- TGI (A498 renal): > 100 µM
- TGI (HOP-62 NSCLC): > 100 µM
- TGI (NCI-H460 lung): > 100 µM
- TGI (HCT-15 colon): > 100 µM
- TGI (TK-10 renal): > 100 µM
- TGI (OVCAR-8 ovarian): > 100 µM
- TGI (HCC-2998 colon): > 100 µM
- TGI (NCI/ADR-RES ovarian): > 100 µM
- TGI (U251 CNS): > 100 µM
- TGI (K-562 leukemia): > 100 µM
- TGI (RXF 393 renal): > 100 µM
- TGI (SR leukemia): > 100 µM

From PubChem BioAssay (NCI)
